PMC7520961, “Safety evaluation of the interchangeable use of robenacoxib in commercially-available tablets and solution for injection in cats” (BMC Veterinary Research, 2020)

Tested on: cats
Assay: Hematology, coagulation and urinalysis (target animal safety study)
Type: in vivo, cat
Conditions: for Absolute Punctate Reticulocyte (mean ± SD) / Basophils (mean ± SD) / Other Cells (mean ± SD) / Monocytes (mean ± SD) / Eosinophils (mean ± SD) / Neutrophils (mean ± SD) / Lymphocytes (mean ± SD) / Erythrocytes (mean ± SD) / Leukocytes (mean ± SD) / Hemoglobin (mean ± SD) / Prothrombin Time (mean ± SD) / APTT (mean ± SD) / MCH (mean ± SD) / Absolute Aggregate Reticulocyte (mean ± SD) / Hematocrit (mean ± SD) / MCHC (mean ± SD) / MCV (mean ± SD) / Platelets (mean ± SD) / Fibrinogen (mean ± SD): post-treatment, average of days 13 and 37; for Basophils (mean ± SD): reference range 0 - 0.03; for Other Cells (mean ± SD): reference range 0 - 0.05; for Monocytes (mean ± SD): reference range 0 - 0.81; for Eosinophils (mean ± SD): reference range 0 - 1.31, significant treatment x sex effect (p<0.1); for Neutrophils (mean ± SD): reference range 0 - 12.65; for Lymphocytes (mean ± SD): reference range 2.18 - 13.48; for Erythrocytes (mean ± SD): reference range 5.36 - 10.78; for Leukocytes (mean ± SD): reference range 6.3 - 27.2; for Hemoglobin (mean ± SD): reference range 7.5 - 14.4; for Prothrombin Time (mean ± SD): reference range 8.7 - 11; for APTT (mean ± SD): reference range 11.2 - 18.7; for MCH (mean ± SD): reference range 11.9 - 15.1; for Absolute Aggregate Reticulocyte (mean ± SD): reference range 12.9 - 106.6; for Hematocrit (mean ± SD): reference range 22.5 - 41.6; for MCHC (mean ± SD): reference range 30.4 - 38; for MCV (mean ± SD): reference range 34.3 - 47.5; for Platelets (mean ± SD): reference range 107 - 779; for Fibrinogen (mean ± SD): reference range 152 - 278
Method: Buccal mucosal bleeding times (BMBT) were measured on all animals on Days − 5 and 36 following ECG examinations while the animals were sedated. The upper lip was everted and a Surgicutt incision device was used to create a small incision (approximately 1 mm in depth and 3.5 mm in length). Blood flow from the incision site was blotted using filter paper below the incision. The elapsed time from the triggering of the device until blood no longer appeared on the filter paper was recorded as the bleed time. Clinical pathology evaluations were conducted on all animals on Days − 13 and − 6 and prior to dosing on Days 13 and 37. Because reference values given by the laboratory were (slightly) different for males and females, they were combined (i.e. lower of the two lower bounds to higher of the two upper bounds) for the tables. Animals were fasted 8–12 hours overnight prior to blood collection. Blood samples (3.0 mL) were collected from the jugular vein into tubes containing K3EDTA for evaluation of hematology parameters, sodium citrate for evaluation of coagulation parameters, and serum separators with no anticoagulant for the clinical chemistry samples. Urine samples were collected on Days […], 13, and 37 by replacing the litter in the litter box with NoSorb® (Creative Science, LLC, Ballwin, MO, USA) for at least 16 hours. Hematology variables were determined using an Advia 120 or Advia 2120 (Siemens, Munich, Germany), light microscope, or sediplast column (Polymedco, NY, US). Coagulation variables were determined using a Stago Compact (Diagnostica Stago, Parsippany, NJ, US), clinical chemistry variables were determined using an Olympus AU2700 or AU640e (Olympus Diagnostics, Southall, UK), and urinalysis variables were determined using a Clinitek-500 or Atlas (Siemens, Munich, Germany), Reichert VET 360 (Reichert Technologies, Buffalo, New York, USA), or light microscope.
Post-treatment values were analyzed using RMANCOVA, with treatment group, sex, time, and their interactions as fixed model effects and the pre-treatment value measured closest to dosing as a covariate. Repeated measurements in the same animal were modeled using a compound symmetry or heterogeneous compound symmetry correlation structure (for food consumption: autoregressive first-order or heterogeneous autoregressive first-order); the model with the smallest Akaike’s Information Criterion was selected for each outcome.
If any of the interactions involving treatment was significant (p < 0.1 for the two-factor interactions or p < 0.05 for the three-factor interaction), it was inappropriate to evaluate the main or overall treatment effect independently of the interacting factor and, as such, treatment comparisons were conducted for each level of the interacting factor. If none of the interactions involving treatment were significant, overall treatment differences were assessed.

[1] = 1X (oral ≥2.4, SC 2.0 mg/kg/day)
[2] = 2X (oral ≥4.8, SC 4.0 mg/kg/day)
[3] = 3X (oral ≥7.2, SC 6.0 mg/kg/day)

Compound: CCc1ccc(Nc2c(F)c(F)cc(F)c2F)c(CC(=O)O)c1 [robenacoxib]
- Absolute Punctate Reticulocyte (mean ± SD) [1]: 2277 ± 658 10^3/µL
- Basophils (mean ± SD) [1]: 0.006 ± 0.011 10^3/µL
- Other Cells (mean ± SD) [1]: 0.62 ± 0.95 10^3/µL
- Monocytes (mean ± SD) [1]: 0.27 ± 0.22 10^3/µL
- Eosinophils (mean ± SD) [1]: 1.08 ± 0.40 10^3/µL
- Neutrophils (mean ± SD) [1]: 5.28 ± 1.75 10^3/µL
- Lymphocytes (mean ± SD) [1]: 6.69 ± 2.61 10^3/µL
- Erythrocytes (mean ± SD) [1]: 7.24 ± 0.88 10^6/µL
- Leukocytes (mean ± SD) [1]: 13.95 ± 4.43 10^3/µL
- Hemoglobin (mean ± SD) [1]: 9.96 ± 0.98 g/dL
- Prothrombin Time (mean ± SD) [1]: 11.03 ± 0.62 s
- APTT (mean ± SD) [1]: 23.35 ± 16.35 s
- MCH (mean ± SD) [1]: 13.82 ± 0.81 pg
- Absolute Aggregate Reticulocyte (mean ± SD) [1]: 4.02 ± 4.81 10^3/µL
- Hematocrit (mean ± SD) [1]: 30.66 ± 3.36%
- MCHC (mean ± SD) [1]: 32.53 ± 0.55 g/dL
- MCV (mean ± SD) [1]: 42.49 ± 2.78 fL
- Platelets (mean ± SD) [1]: 253.7 ± 157.1 10^3/µL
- Fibrinogen (mean ± SD) [1]: 180.8 ± 37.0 mg/dL
- Absolute Punctate Reticulocyte (mean ± SD) [2]: 1915 ± 702 10^3/µL
- Basophils (mean ± SD) [2]: 0.010 ± 0.011 10^3/µL
- Other Cells (mean ± SD) [2]: 0.30 ± 0.71 10^3/µL
- Monocytes (mean ± SD) [2]: 0.28 ± 0.14 10^3/µL
- Eosinophils (mean ± SD) [2]: 0.94 ± 0.52 10^3/µL
- Neutrophils (mean ± SD) [2]: 5.73 ± 1.34 10^3/µL
- Lymphocytes (mean ± SD) [2]: 6.16 ± 1.81 10^3/µL
- Erythrocytes (mean ± SD) [2]: 7.58 ± 0.82 10^6/µL
- Leukocytes (mean ± SD) [2]: 13.43 ± 3.10 10^3/µL
- Hemoglobin (mean ± SD) [2]: 9.99 ± 1.06 g/dL
- Prothrombin Time (mean ± SD) [2]: 10.77 ± 0.56 s
- APTT (mean ± SD) [2]: 16.68 ± 2.52 s
- MCH (mean ± SD) [2]: 13.21 ± 0.99 pg
- Absolute Aggregate Reticulocyte (mean ± SD) [2]: 1.38 ± 4.14 10^3/µL
- Hematocrit (mean ± SD) [2]: 30.17 ± 3.65%
- MCHC (mean ± SD) [2]: 33.14 ± 0.65 g/dL
- MCV (mean ± SD) [2]: 39.86 ± 3.11 fL
- Platelets (mean ± SD) [2]: 334.7 ± 155.9 10^3/µL
- Fibrinogen (mean ± SD) [2]: 180.3 ± 22.2 mg/dL
- Absolute Punctate Reticulocyte (mean ± SD) [3]: 2129 ± 555 10^3/µL
- Basophils (mean ± SD) [3]: 0.006 ± 0.007 10^3/µL
- Other Cells (mean ± SD) [3]: 0.44 ± 0.92 10^3/µL
- Monocytes (mean ± SD) [3]: 0.26 ± 0.15 10^3/µL
- Eosinophils (mean ± SD) [3]: 1.10 ± 0.40 10^3/µL
- Neutrophils (mean ± SD) [3]: 5.46 ± 1.04 10^3/µL
- Lymphocytes (mean ± SD) [3]: 7.50 ± 2.64 10^3/µL
- Erythrocytes (mean ± SD) [3]: 7.73 ± 0.88 10^6/µL
- Leukocytes (mean ± SD) [3]: 14.76 ± 3.66 10^3/µL
- Hemoglobin (mean ± SD) [3]: 10.13 ± 1.15 g/dL
- Prothrombin Time (mean ± SD) [3]: 10.84 ± 0.46 s
- APTT (mean ± SD) [3]: 16.83 ± 2.52 s
- MCH (mean ± SD) [3]: 13.11 ± 0.65 pg
- Absolute Aggregate Reticulocyte (mean ± SD) [3]: 1.45 ± 4.17 10^3/µL
- Hematocrit (mean ± SD) [3]: 30.90 ± 3.81%
- MCHC (mean ± SD) [3]: 32.80 ± 1.57 g/dL
- MCV (mean ± SD) [3]: 40.03 ± 2.65 fL
- Platelets (mean ± SD) [3]: 301.4 ± 173.8 10^3/µL
- Fibrinogen (mean ± SD) [3]: 172.5 ± 16.3 mg/dL
- coagulation or urinalysis values between groups (all groups during the study): no significant differences
